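Protocol summary: plate cells (96-well), add compound at 5 concentrations, incubate 48 h, interpolate endpoints linearly. The concentration for 50% growth inhibition is given as GI50. TGI is the concentration that stops growth completely.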
Experiments:
Assay in all cases: DTP human tumour cell line panel, 48 h
[1] = system: SF-295 CNS
[2] = system: LOX IMVI melanoma
[3] = system: SK-MEL-28 melanoma
[4] = system: TK-10 renal
[5] = system: A498 renal
[6] = system: RPMI-8226 leukemia
[7] = system: UACC-257 melanoma
[8] = system: OVCAR-3 ovarian
[9] = system: EKVX NSCLC
[10] = system: HOP-92 NSCLC

Row | Structure (SMILES) | TGI [1] | TGI [2] | TGI [3] | TGI [4] | TGI [5] | TGI [6] | TGI [7] | TGI [8] | TGI [9] | TGI [10] | GI50 [1] | GI50 [2] | GI50 [3] | GI50 [10] | GI50 [4] | GI50 [7] | GI50 [8] | GI50 [9] | GI50 [5] | GI50 [6]
1 | CCN(CC)C(=S)N/N=C(\C)c1ccccc1O | > 100 µM | 77.4 µM | > 100 µM | > 100 µM | > 100 µM | > 100 µM | > 100 µM | > 100 µM | > 100 µM |  |  |  |  |  |  |  |  |  |  | 
2 | COc1cc2c(cc1OC)[C@@H](C(O)c1ccccc1)NCC2 (some centres not stated) | > 100 µM | > 100 µM |  | > 100 µM | > 100 µM |  | > 100 µM | > 100 µM | > 100 µM | > 100 µM |  |  |  |  |  |  |  |  |  | 
3 | NC(=NC1CCCCCC1)c1ccc(N2CCN(c3ccc(C(N)=NC4CCCCCC4)cc3)CC2)cc1 | 19.9 µM | 20.3 µM | 22.4 µM | > 50 µM |  |  | > 50 µM | 28.8 µM | 23 µM | 28.7 µM | 3.89 µM | 3.05 µM | 10.7 µM | 8.29 µM | 14.6 µM | 9.75 µM | 4.28 µM | 1.44 µM |  | 
4 | O=c1[nH]nc2c3c(cccc13)NC(CN1Cc3ccccc3C1)=N2 | > 100 µM | > 100 µM | > 100 µM | > 100 µM | > 100 µM | > 100 µM | > 100 µM | > 100 µM | > 100 µM |  | 5.61 µM | 3.16 µM | 15.3 µM |  | 8.89 µM | 37 µM | 5.64 µM | 3.92 µM | 4.7 µM | 8.17 µM
5 | Cc1cc(N/N=C/c2nc(-c3ccccc3)oc2C)c2cc(Cl)ccc2n1 | 3.2 µM |  | 3.16 µM | 3.29 µM | 18.1 µM |  | 4.9 µM | 3.57 µM | 4.53 µM | 2.87 µM | 1.69 µM |  | 1.71 µM | 1.43 µM | 1.79 µM | 2.01 µM | 1.94 µM | 1.99 µM | 3.2 µM | 
6 | O=Cc1[nH]c2ccccc2c1Br | > 100 µM | 75.7 µM | 59.4 µM | 74.3 µM | 33.6 µM |  | 67.4 µM | 56.5 µM | > 100 µM | 66.8 µM |  |  |  |  |  |  |  |  |  | 
7 | Cc1nn2c(/C=C3/C(=O)Nc4ccc(Cl)cc43)c(-c3ccccc3)nc2s1 | 5.76 µM | 14.8 µM | 7.06 µM | 8.79 µM | 10.6 µM | 22.1 µM | 11.1 µM | 13 µM |  | 3.06 µM | 2.02 µM | 3.52 µM | 2.65 µM | 0.58 µM | 3.3 µM | 3.11 µM | 2.79 µM |  | 1.63 µM | 2.94 µM
8 | CC(=S)NNC(=O)c1ccncc1 | > 100 µM | > 100 µM | > 100 µM | > 100 µM | > 100 µM |  | > 100 µM | > 100 µM | > 100 µM | > 100 µM |  |  |  |  |  |  |  |  |  | 
9 | CN(C)CC#Cc1cccc(C(=O)c2cnn(-c3ccc(F)cc3)c2N)c1 | > 25 µM | > 25 µM | > 25 µM | > 25 µM | > 25 µM | > 25 µM | > 25 µM | > 25 µM |  | > 25 µM | > 20.6 µM | > 25 µM | > 25 µM | > 17.7 µM | > 25 µM | > 25 µM | > 25 µM |  | > 21.3 µM | > 25 µM
10 | COc1ccc(C=NC23CC4CC(CC(C4)C2)C3)cc1 | > 100 µM | > 100 µM | > 100 µM | > 100 µM | > 100 µM | > 100 µM | > 100 µM | > 100 µM | > 100 µM |  |  |  |  |  |  |  |  |  |  | 
11 | CO/N=C1/NC(=O)/C(=C/c2ccc3ncccc3c2)S1 | > 25 µM | > 25 µM | > 25 µM | > 25 µM | 11.5 µM | > 25 µM | > 25 µM | > 25 µM |  | > 25 µM | 19.9 µM | 12.8 µM | 19.5 µM | 4.48 µM | 8.01 µM | 18 µM | 11.1 µM |  | 3.41 µM | > 25 µM
12 | CCOC(=O)NC(=O)c1cn(CCCOC(=O)CCCCCCCCC(=O)OCCCn2cc(C(=O)NC(=O)OCC)c(=O)[nH]c2=O)c(=O)[nH]c1=O | 50.2 µM | > 100 µM | 64.8 µM | 57.9 µM | 67.5 µM | 38.3 µM | 48.4 µM | 34.8 µM | > 100 µM |  |  |  |  |  |  |  |  |  |  | 
13 | O=C(O)c1ccc([N+](=O)[O-])c2c(=O)c3ccccc3[nH]c12 | > 100 µM | > 100 µM |  |  | > 100 µM | > 100 µM | > 100 µM |  |  | > 100 µM |  |  |  |  |  |  |  |  |  | 
14 | O=C(N/N=C/c1cc(Br)cc(Br)c1[O-])c1ccccc1O.O=C(N/N=C/c1cc(Br)cc(Br)c1[O-])c1ccccc1O.[Mn+2] | 13.7 µM |  | 13.8 µM | 31 µM | 50.1 µM | 14.8 µM | 21 µM | 1.66 µM | 34.6 µM | 14.9 µM |  |  |  |  |  |  |  |  | 12.8 µM | 1.03 µM
15 | Cc1nc(NC(=S)Nc2ccc(F)cc2)sc1C(=O)NNC(=S)Nc1ccc(F)cc1 | 21.1 µM |  | 28.3 µM | 48.1 µM | 15.4 µM | 6.9 µM | 36.8 µM | 10.1 µM | > 100 µM | 7.25 µM | 3.96 µM |  | 8.65 µM | 1.49 µM | 6.93 µM | 10.1 µM | 2.55 µM | 4.61 µM | 2.4 µM | 2.2 µM
16 | COC1CC(OS(=O)(=O)c2ccc(C)cc2)C(OS(=O)(=O)c2ccc(C)cc2)C(COS(=O)(=O)c2ccc(C)cc2)O1 (configuration not stated) | 4.38 µM |  | 13.4 µM |  |  | 86 µM | 21 µM | 5.62 µM | 24.4 µM |  |  |  |  |  |  |  |  |  |  | 
17 | COC[C@H]1OC(=O)c2coc3c2[C@@]1(C)C1=C(C3=O)[C@@H]2CCC(=O)[C@@]2(C)C[C@H]1OC(C)=O | 63.1 µM | 53.8 µM | > 100 µM | > 100 µM | 17.3 µM | > 63.6 µM | > 100 µM | > 78.1 µM | > 100 µM |  |  |  |  |  |  |  |  |  | 0.58 µM | 
18 | COc1ccc(C(=O)/C=C/c2cc(C(=O)c3cc(OC)c(OC)c(OC)c3)ccc2OC)cc1 | > 100 µM |  |  | > 100 µM | > 100 µM |  |  |  |  | 58.9 µM | 6.27 µM |  |  | 5.81 µM | 14 µM |  |  |  | 7.33 µM | 
19 | O=C(c1cc(-c2cc3c(cc2C(=O)N2Cc4ccccc4C[C@H]2CN2CCOCC2)OCO3)n2c1CCCC2)N(c1ccccc1)c1ccc(O)cc1 | > 100 µM | > 100 µM | > 100 µM | > 100 µM | 15.3 µM |  | > 100 µM | > 100 µM | > 100 µM | 15 µM | 5.14 µM | 7.09 µM | 11.4 µM | 2.72 µM | 27.8 µM | 18.9 µM | 5.55 µM | 5.31 µM | 2.71 µM | 
20 | COc1ccc(C2=C(c3cn(C)c4ccccc34)C(=O)NC2=O)cc1OC | > 25 µM | > 25 µM | > 25 µM | > 25 µM | 8.95 µM | > 25 µM | > 25 µM | > 25 µM |  | > 25 µM | 10.4 µM | 8.12 µM | 16.8 µM | > 12.4 µM | 9.2 µM | > 25 µM | 7.57 µM |  | 3.43 µM | 9.61 µM
21 | O=C(Nc1cc(Cl)ccc1O)c1cccc(NC2=C(Cl)C(=O)N(Cc3ccccc3)C2=O)c1 | 47.6 µM | 32.1 µM | > 100 µM | 95.5 µM | > 100 µM |  | 68.2 µM | 54.4 µM | > 100 µM |  | 20.5 µM | 15.7 µM | 42.4 µM |  | 37.3 µM | 23.8 µM | 23.4 µM | > 100 µM | 25.8 µM | 
22 | Cc1ccc(C2=Nc3ccccc3NC(=O)C2)cc1 | > 100 µM | > 100 µM | > 100 µM | > 100 µM | > 100 µM |  | > 100 µM | > 100 µM | > 100 µM | > 100 µM |  |  |  |  |  |  |  |  |  | 
23 | C=CCN=C1N=C(CC(=O)OCC)CS1 | > 100 µM | > 100 µM | > 100 µM | > 100 µM | > 100 µM |  | > 100 µM | > 100 µM | > 100 µM | > 100 µM |  |  |  |  |  |  |  |  |  | 
24 | Cc1cc(-c2nc3ccc(O)cc3s2)ccc1N | > 100 µM | > 100 µM | > 100 µM | > 100 µM | > 100 µM |  | > 100 µM | > 100 µM | 58.3 µM | > 100 µM | 31.5 µM | > 100 µM | 64.9 µM | > 100 µM | 76.8 µM | > 100 µM | 39.3 µM | 4.07 µM | 41.3 µM | 
25 | NC1CCC[C@@H](O)[C@H]1O (some centres not stated) | > 100 µM | > 100 µM | > 100 µM | > 100 µM | > 100 µM | > 100 µM | > 100 µM | > 100 µM | > 100 µM |  |  |  |  |  | > 100 µM |  |  |  |  | 
26 | C#CC[C@H](c1nc2cc(Cl)ccc2c(=O)n1Nc1ccccc1)N(CCCN)C(=O)c1cccc(Cl)c1F | 1.48 µM | 1.84 µM | 2.22 µM | 2.8 µM | 3.43 µM | 1.16 µM | 2.37 µM | 1.19 µM |  | 1.65 µM | 0.353 µM | 0.325 µM | 0.765 µM | 0.179 µM | 1.39 µM | 1.02 µM | 0.242 µM |  | 0.626 µM | 0.131 µM

Reference: PubChem BioAssay (NCI)
